These results are taken from patent US9328123B2, “Rotenone derivatives and a use thereof” (priority 2012, dated 2016).

In one experiment the target is pig pancreatic lipase (Sus scrofa (Pig), UniProt P00591). Kind of experiment: Pancreatic lipase inhibiting activity (p-nitrophenylbutyrate hydrolysis). It is filed as biochemical. On the procedure: To investigate obesity treating effect of the novel rotenoisin A and B, each represented by formula 2 and formula 3 isolated and purified in <Example 2>, pancreatic lipase inhibiting activity of the same was measured.
pig pancreatic lipase, sequence (P00591 whole entry): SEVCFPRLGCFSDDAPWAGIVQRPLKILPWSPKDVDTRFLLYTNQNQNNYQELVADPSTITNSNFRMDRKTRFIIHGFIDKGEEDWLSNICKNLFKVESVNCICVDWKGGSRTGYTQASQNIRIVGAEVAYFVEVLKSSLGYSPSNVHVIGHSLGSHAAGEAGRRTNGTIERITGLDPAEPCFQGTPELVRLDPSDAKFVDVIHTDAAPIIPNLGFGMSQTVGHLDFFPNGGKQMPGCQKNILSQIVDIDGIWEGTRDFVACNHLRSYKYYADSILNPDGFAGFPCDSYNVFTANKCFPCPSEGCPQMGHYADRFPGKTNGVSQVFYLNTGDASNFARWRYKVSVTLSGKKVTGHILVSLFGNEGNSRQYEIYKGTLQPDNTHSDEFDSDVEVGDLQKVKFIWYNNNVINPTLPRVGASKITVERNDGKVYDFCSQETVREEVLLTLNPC
Particularly, pancreatic lipase inhibiting activity was measured by the conventional method known to those in the art (Kim, J. H.; Kim, H. J.; Park, H. W.; Youn, S. H.; Choi, D. Y.; Shin, C. S. FEMS Microbiol. Lett. 2007, 276, 93.). To prepare the enzyme buffer, […] (10 units) of pig pancreatic lipase solution (Sigma, St. Louis, Mo.) and 1 mM EDTA (pH 6.8) were mixed with 10 mM MOPS (morpholinepropanesulphonic acid), which was added to […] of tris buffer (100 mM Tris-HCl and 5 mM CaCl2, pH 7.0). Then, […] of the rotenoisin A or B of the present invention was mixed with the prepared enzyme buffer at the experimental concentration. […] 20 mL of substrate solution containing 20 mM p-nitrophenylbutyrate dissolved in dimethyl formaide was added to the enzyme buffer, followed by culture for 15 minutes at 37° C. that was the temperature adequate for enzyme reaction. Pancreatic lipase activity was measured by measuring the hydrolysis of p-nitrophenylbutyrate into p-nitrophenol using an ELISA reader (Infinite F200; Tecan Austria GmBH, Grodig, Austria).

In another experiment the test system is 3T3-L1 preadipocytes. Put plainly: Inhibition of differentiation of 3T3-L1 preadipocyte to adipocyte (oil red O staining). Type of experiment: cell-based, mouse. As to conditions: 3T3-L1 cell line, concentration of 2 μM. As to the method: To investigate inhibition effect on adipocyte differentiation in 3T3-L1 preadipocytes, mouse embryo fibroblasts were cultured in DMEM supplemented with 10% FBS to confluency. Two days later (Day 0), the cells were stimulated for the differentiation in DMEM, the differentiation medium supplemented with 10% FBS, 0.5 mM 3-isobutyl-1-methyl-xanthine, […], and […] (Day 2). For the next 6 days, the cells were cultured in DMEM supplemented with 10% FBS and 2 mM insulin (Day 8), followed by further culture in DMEM supplemented with 10% FBS for […] (Day 8). Every medium was added with 100 IU/ml of penicillin and […] of streptomycin. The cells were cultured in the presence of 95% air and 5% CO2. During the whole culture period (Day 0˜Day 8), the treatment of the rotenoisin A and B (2, 0.2, 0.02 uM) of the present invention was performed by the conventional method known to those in the art (Liu, Q.; Shin, E.; Ahn, M. J.; Hwang, B. Y.; Lee, M. K. Nat. Prod. Sci. 2011, 17, 212.) with slight modification. […]
Particularly, intracellular fat lump was stained with oil red O. 8 days after the induction of cell differentiation, the cells were washed with […] twice, followed by fixing in 10% formalin for 1 hour at room temperature. […] For quantitative analysis, oil red O was dissolved with isopropyl alcohol, followed by measuring OD500 using an ELISA reader.

Consider `C=C(C)[C@H]1Cc2c(ccc3c2O[C@@H]2COc4cc(OC)c(OC)cc4[C@@H]2C3=O)O1` [rotenone], for which, on pig pancreatic lipase, the IC50 is > 500 µM.
Same read-out and setting: the same measure for `C=C(C)[C@H]1Cc2c(ccc3c2O[C@@H]2COc4cc(OC)c(OC)cc4[C@@H]2[C@]32CC3O[C@]3(O)[C@@H](O)O2)O1` (some centres unmarked) [rotenoisin B]: 28.4 ± 1.2 µM.
Regarding `C=C(C)[C@H]1Cc2c(ccc3c2O[C@@H]2COc4cc(OC)c(OC)cc4[C@@H]2C32CO2)O1` (some centres unmarked) [rotenoisin A], on pig pancreatic lipase, the IC50 was found to be 6.3 ± 0.3 µM. In addition, the “adipocyte differentiation inhibiting activity” value in the experiment with 3T3-L1 preadipocytes (Day 8) is given as “approximately 70%”. Further, the inhibition at 2 µM with 3T3-L1 preadipocytes (Mus musculus, 192 h, Day 8, read-out: adipocyte differentiation inhibiting activity) was ~70%.

As a reminder, the IC50 is the point on the concentration scale where inhibition reaches its midpoint.
